# Source: patent US8987449B2, “Medicine for treating ischemic brain injury and its sequelae, and preparation method thereof” (Haimin Lei, priority 2011, dated 2015)
# Tests used:
# [1] = test system: MCAO rats; experiment: Grip strength test of the forelimb of MCAO rats; type: in vivo, rat; settings: for Grip value (g) (3 d): model group 317.01 ± 53.81; for Grip value (g) (7 d): model group 285.58 ± 80.02
# Text: 140 healthy SD male rats, weighing 280-300 g, provided by Beijing Vital River Laboratories, certificate No.: SCXK (Jing) 2002-2003. Nylon fishing wire, diameter 0.25 mm, German; YLS-13A, grip strength meter for mice and rats, Shandong Science Technology Instrument Station. The method of [Koizumi J, Yoshida […]. Experimental studies of ischemia brain edema, I: A new experimental model of cerebral embolism in rats in which recirculation can be introduced in the ischemic area[J]. […] After the rats were anesthetized and the skin thereof was disinfected by ethanol. By cutting right in the middle of the neck, the right common carotid artery, internal carotid artery and external carotid artery were separated and the common carotid artery and external carotid artery were ligated. The internal carotid artery was clamped with a bulldog clamp. A cut was made at the crotch of the external carotid artery and the internal carotid artery followed by releasing the bulldog clamp. […] Next, the external carotid artery was ligated and the nylon wire was fixed. In sham operation group, the right common carotid artery, the external carotid artery and the internal carotid artery were only exposed and separated. The rats were routinely raised in different cages. 0.5 ml penicillin was continuously injected into every mouse for three days after the surgery. […] The rats getting 1-3 point were selected for the subsequent experiment. The MCAO rats having the same point were distributed randomly and averagely to each experimental group. […] Evaluated was the change of the grip strength of the forelimb after the cerebral ischemia. A rat was put onto the pulling board making the forepaws thereof grab the cross bar. Then the tester pulled the rat backward to make its body slide backward along the board until the release of the forepaws (during this process it was made sure that the waist of the rat carried no force). The biggest grip strength was read when the forepaws released. Test was carried out twice for every rat and the bigger value was taken. The third and the seventh days after the administration were as the observation time to carry out the test. The SPSS 11.0 software pack was used to carry out the statistical analysis of all the data. The comparison of the enumeration data was carried out with X^2 test P<0.05 had statistical meaning.
# [2] = test system: VEGF; experiment: VEGF content of MCAO rats (kit, 450 nm); type: in vivo, rat; settings: brain homogenate, model group 18.28 ± 1.62
# Text: 1.1 Experimental animal and 1.2 Medicine to be tested: the same as effect example 6
# 1.3 Experimental reagents: PBS, VEGF kit
# 1.4 Experimental instruments: nylon fishing wire having a diameter of 0.25 mm, German; enzyme-labeling instrument (Finland, Thermo BioAnalysis Company's product, Multiskan MK3 model); surgical instruments, Surgical Instrument Factory of Shanghai Medical Apparatus And Instruments CO, LTD.
# 2.1 The preparation of re-perfusion model of middle cerebral artery occlusion of a rat: the same as effect example 6
# 2.2 The judgment on whether the model was successful and 2.3 Grouping and administration: the same as effect example 6
# 2.4 Taking Material and treatment: the same as effect example 6
# As to VEGF, it is detected using enzyme-labeling instrument at 450 nm according to the kit.
# The SAS 8.2 statistical software was used to carry out the one-way ANOVA variance analysis and the differences among the groups were compared by t-test.
# [3] = test system: ICR mice; experiment: Buccal respiration duration of mice after head cutting (4° C. icy water swimming model); type: in vivo, mouse; settings: control 32.45 ± 5.49
# Method: ICR mice, half female and half male, weighing 19-21 g, certificate No.: SCXK (Jing) 2006-0009, provided by BeiJing Vital River Laboratories.
# LQC-T4, tetramethylpyrazine (TMP), vanillic acid, Nimodipine (ShanDong XinHua Pharmaceutical CO., Ltd, batch No.: 0908164)
# 160 male ICR mice were divided into 8 groups randomly by weight, each of which contained 20 mice, wherein 0.5% CMC-NA (0.2 ml·10 g^−1) was administrated intragastrically to the blank control group; 6.7 mg·kg^−1 Nimodipine (0.2 ml·10 g^−1) was administrated intragastrically to the positive control group; 100 mg·kg^−1 TMP (0.2 ml·10 g^−1) was administrated intragastrically to the TMP group, three different dosage of 200 mg·kg^−1, 100 mg·kg^−1, 50 mg·kg^−1 were administrated intragastrically to the LQC-T4 (0.2 ml·10 g^−1) group relatively, and 125 mg·kg^−1 TMP+80 mg·kg^−1 vanillitc acid (0.2 ml·10 g^−1) was administrated intragastrically respectively. The medicines were continuously administrated once a day for 10 days.
# The literature was referred to: [LiuZhenquan, SunHui, Xuqiuping, etc., Experimental Study on the Brain-Protective Effect of the Effective Fraction of Naoxin Formula in the Mouse Model of with Load-Bearing Swimming in Cold Water, Journal of Beijing University of Traditional Chinese Medicine [J], 2004, 27(4): 54-56] and the method recorded therein was improved. The head was rapidly cut with a scissor at post mortem when the mouse swam in 4° C. icy water for 3 min after the final administration. After head being cut, the buccal respiration duration of mouse was recorded.
# The SAS 8.2 statistical software was used to carry out the one-way ANOVA variance analysis and the difference among the groups were compared by t-test.
# [4] = 60 mg/kg intragastrically once a day
# [5] = 120 mg/kg intragastrically once a day
smiles,measurement,setting,value
"COc1cc(C(=O)OCc2nc(C)c(C)nc2C)ccc1OCc1nc(C)c(C)nc1C [LQC-T4, (3,5,6-trimethylpyrazine-2-yl)methyl 3-methoxy-4-((3,5,6-trimethylpyrazine-2-yl)methoxy) benzoate]",Grip value (g) (3 d),[1]; [4],395.50 ± 16.88 g
same,Grip value (g) (7 d),[1]; [4],468.81 ± 78.14 g
same,Grip value (g) (3 d),[1]; [5],386.57 ± 42.35 g
same,Grip value (g) (7 d),[1]; [5],421.68 ± 59.87 g
same,VEGF,[2]; 60 mg/kg intragastrically once per day for 10 days,25.67 ± 9.69
same,VEGF,[2]; 120 mg/kg intragastrically once per day for 10 days,22.86 ± 8.42
same,respiration duration,[3]; 50 mg/kg intragastrically once a day for 10 days,36.78 ± 5.40 s
same,respiration duration,[3]; 100 mg/kg intragastrically once a day for 10 days,36.07 ± 3.15 s
same,respiration duration,[3]; 200 mg/kg intragastrically once a day for 10 days,35.91 ± 4.25 s
"Cc1nc(C)c(C)nc1C [TMP, tetramethylpyrazine, reference compound]",Grip value (g) (3 d),[1]; 37 mg/kg once a day,415.19 ± 26.81 g
same,Grip value (g) (7 d),[1]; 37 mg/kg once a day,434.22 ± 50.23 g
same,VEGF,[2]; 37 mg/kg once per day for 10 days,23.62 ± 6.68
same,respiration duration,[3]; 125 mg/kg intragastrically once a day for 10 days,37.26 ± 5.99 s
"COCCOC(=O)C1=C(C)NC(C)=C(C(=O)OC(C)C)C1c1cccc([N+](=O)[O-])c1 (centres unmarked) [Nimodipine, reference compound]",Grip value (g) (3 d),[1]; 30 mg/kg once a day,409.08 ± 65.13 g
same,Grip value (g) (7 d),[1]; 30 mg/kg once a day,393.08 ± 59.61 g
same,VEGF,[2]; 30 mg/kg once per day for 10 days,19.66 ± 2.34
same,respiration duration,[3]; 6.7 mg/kg intragastrically once a day for 10 days,37.23 ± 5.37 s
